Experimental data published in paper PMC6158189, “A pharmacological probe identifies cystathionine β-synthase as a new negative regulator for ferroptosis” (Cell Death & Disease, 2018).
Several values for one entry are separate records, joined by “and”; a condition that tells them apart may be missing. Identical values can stand only once. Like-named read-outs stand apart in the source and are kept apart here.

Key:
hCBS-413 = molecular target: T1, hCBS-413 (Homo sapiens, UniProt P35520); test: purified hCBS-413 enzyme assay (192-tandem-well plate, H2S detected with DTNB); assay type: biochemical
T1 construct: hCBS-413 (a C-terminal truncated hCBS 1–413); GST (N); made in house; host or cells: E. coli BL21
T1 sequence (P35520 1-413): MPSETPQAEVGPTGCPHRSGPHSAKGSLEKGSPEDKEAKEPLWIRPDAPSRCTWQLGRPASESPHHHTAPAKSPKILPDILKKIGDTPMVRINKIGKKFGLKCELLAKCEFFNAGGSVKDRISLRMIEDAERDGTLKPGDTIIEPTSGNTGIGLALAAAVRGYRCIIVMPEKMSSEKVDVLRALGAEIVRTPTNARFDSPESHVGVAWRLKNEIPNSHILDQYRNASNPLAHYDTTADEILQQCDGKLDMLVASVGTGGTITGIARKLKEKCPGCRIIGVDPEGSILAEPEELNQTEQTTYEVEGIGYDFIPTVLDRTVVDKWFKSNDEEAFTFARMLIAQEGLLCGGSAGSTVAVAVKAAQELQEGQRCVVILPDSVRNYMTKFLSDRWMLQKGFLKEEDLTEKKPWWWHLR
Experimental: Fig. 1 CH004 inhibits the activity of hCBS in the in vitro purified enzyme assays under different assay conditions. a A scheme for the cascade enzymatic reactions catalyzed by CBS or CSE. Cth, cystathionine. b, c Inhibitory effects of CH004 on the activity of hCBS-413 (b) or hCSE (c). The enzyme activities were monitored for various concentrations of CH004 under the standard conditions (50 mM Tris-HCl, pH 8.6; “Materials and Methods” section). The result is shown as percentages of the control (DMSO, 100%). The data are shown as means ± SDS (n = 3). d The dose-dependent inhibition of CH004 on the hCBS-413 activity was measured by the tandem-well-based assay under the standard conditions except using 50 mM Hepes buffer (pH 7.4) instead of 50 mM Tris-HCl (pH 8.6). Means ± SDs (n = 3). e The dose-dependent inhibition of CH004 on the CBS activity measured by methylene blue method. The CBS enzyme assay was performed with a 50 μl assay buffer in an Eppendorf tube under the standard assay conditions for the 192-tandem-well based assay, i.e., 50 μl 50 mM Tris-HCl buffer (pH 8.6) containing 150 nM hCBS-FL, 200 μM S-adenosyl-L-methionine, 4 mM L-Cys and 4 mM D,L-Hcys, in the presence of 0 (DMSO control), 0.01, 0.5, 1, 5, 10 or 100 μM CH004. After 80 min, the assay was stopped by added 10 μL 10% ZnAC and the generated H2S was quantified by N,N-dimethyl-p-phenylenediamine to give an absorbance at 670 nm (for details, see Materials and Methods section; ref. [53]).
(§1) The IC50 values of CH004 for hCBS-413, hCBS-413 mutants, hCBS-FL, hCSE or hDDC were determined according to the standard assay conditions otherwise indicated.
Table S2. Inhibitory effects of CH004 on hCBS WT and mutants.

HCT116 cells = test: cell viability (CellTiter 96 Aqueous One); assay type: cell-based
Experimental: (§2) To measure cell viability and cytotoxicity, HepG2, HEK293T, Huh-7, H22, Panc-28, HCT116 and MDA-MB-231 cells were seeded at a density of ~ 2 × 10^4 cells per well in 96-well plates (Coring, NY, USA) for one day, followed by incubation with DMSO or various concentrations of tested compound for indicated times. Then, the cells were collected to measure the cell viability using the CellTiter 96® Aqueous One Solution Cell Proliferation Assay (Promega, G3581) according to the standard protocols.
(§3) Figure S11. The effects of CH004 on cell viability in various types of cancer cell lines. (A) Dose-dependent curves of CH004 on cell viability of HepG2 cells (▲), HEK293T cells (○). Percentages of cell viability of CH004 obtained in Figure 4a were fitted to the non-linear equation using GraphPad Prism 5 to get the IC50 values of CH004 in respective cell lines. Means ± SDs (n=3). […] (B) MDA-MB-231 (breast cancer cell cline), HCT116 (colon cancer), Panc-28 cells (pancreas cancer), Huh7 cells (hepatocellular carcinoma) and H22 (mouse liver cancer) were incubated with DMSO (control) or indicated concentrations of CH004 for 24 h in a 96-well plate before assessing cell viability using the CellTiter96® Aqueous One Solution Cell Proliferation Assay (Promega). The data are shown as percentages of control (DMSO, 100%). Means ± SDs (n=3). (C) The dose-dependent curve of CH004 on cell viability. Percentages of cell viability obtained in B were fitted to the non-linear equation using GraphPad Prism 5 to get the IC50 values of CH004 in respective cell lines. […] The experiments were independently repeated twice in triplicates and a representative experiment is shown.

Huh7 cells = test: cell viability (CellTiter 96 Aqueous One); assay type: cell-based
Experimental: as §2, §3

MDA-MB-231 cells = test: cell viability (CellTiter 96 Aqueous One); assay type: cell-based; conditions: Homo sapiens, MDA-MB-231, 24 h
Experimental: as §2, §3

Panc-28 cells = test: cell viability (CellTiter 96 Aqueous One); assay type: cell-based; conditions: 24 h
Experimental: as §2, §3

hCSE = hCSE (Homo sapiens, UniProt P32929); test: purified hCSE enzyme assay; assay type: biochemical; design: human CBS or hCSE full-length (CBS-FL or CSE) was subcloned into pGEX-KG, pcDNA3 or pCDH vector; GST (N); made in house; host or cells: E. coli BL21
Chain of hCSE (P32929 whole entry): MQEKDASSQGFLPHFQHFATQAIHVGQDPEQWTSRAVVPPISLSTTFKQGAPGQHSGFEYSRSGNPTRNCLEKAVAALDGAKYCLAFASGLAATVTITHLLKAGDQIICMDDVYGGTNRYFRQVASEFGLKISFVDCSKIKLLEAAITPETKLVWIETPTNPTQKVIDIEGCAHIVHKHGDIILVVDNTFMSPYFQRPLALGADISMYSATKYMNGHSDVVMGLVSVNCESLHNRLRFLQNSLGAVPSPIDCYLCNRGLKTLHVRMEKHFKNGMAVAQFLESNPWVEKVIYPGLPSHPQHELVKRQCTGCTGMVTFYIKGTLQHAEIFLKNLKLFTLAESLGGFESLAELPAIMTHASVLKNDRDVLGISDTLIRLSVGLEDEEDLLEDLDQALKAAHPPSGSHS
Experimental: Fig. 1 CH004 inhibits the activity of hCBS in the in vitro purified enzyme assays under different assay conditions. a A scheme for the cascade enzymatic reactions catalyzed by CBS or CSE. Cth, cystathionine. b, c Inhibitory effects of CH004 on the activity of hCBS-413 (b) or hCSE (c). The enzyme activities were monitored for various concentrations of CH004 under the standard conditions (50 mM Tris-HCl, pH 8.6; “Materials and Methods” section). The result is shown as percentages of the control (DMSO, 100%). The data are shown as means ± SDS (n = 3). d The dose-dependent inhibition of CH004 on the hCBS-413 activity was measured by the tandem-well-based assay under the standard conditions except using 50 mM Hepes buffer (pH 7.4) instead of 50 mM Tris-HCl (pH 8.6). Means ± SDs (n = 3). e The dose-dependent inhibition of CH004 on the CBS activity measured by methylene blue method. […] After 80 min, the assay was stopped by added 10 μL 10% ZnAC and the generated H2S was quantified by N,N-dimethyl-p-phenylenediamine to give an absorbance at 670 nm (for details, see Materials and Methods section; ref. [53]).
as §1

In the case of `Cn1nc(Cc2ccccc2)nc2c(=O)n(C)c(=O)nc1-2` [CH004, 3-benzyl-1,6-dimethylpyrimido[5,4-e][1,2,4]triazine-5,7(1H,6H)-dione], the IC50 (hCBS-413; 150 nM purified CBS, 4 mM Hcys, 4 mM Cys, 50 mM Tris-HCl pH 8.6 (Table S2), read-out: IC50 hCBS WT) is reported as 1200 ± 50 nM, the “IC50 fold to WT, hCBS WT” value (hCBS-413; Table S2) is reported as 1 and the IC50 (hCBS-413; hCBS-413, 50 mM Hepes buffer pH 7.4 instead of Tris-HCl pH 8.6, read-out: IC50 on hCBS (Hepes; pH 7.4)) is reported as 1100 ± 170 nM. The IC50 (hCBS-413; standard conditions, 50 mM Tris-HCl pH 8.6, read-out: IC50 on hCBS-413) was ~1000 nM and 1000 nM, the IC50 (HCT116 cells; 24 h) was 4 µM and the IC50 (HCT116 cells; Homo sapiens, HCT-116, 24 h) was 4.1 ± 1.2 µM. It also gave an IC50 (Huh7 cells; 24 h) of roughly 12 µM, an IC50 (Huh7 cells; Homo sapiens, Huh-7, 24 h) of 12.4 ± 1.6 µM and an IC50 (MDA-MB-231 cells) of 25.8 ± 3.2 µM. For the same compound, the IC50 (Panc-28 cells) was 7.2 ± 0.5 µM, the “Fold selectivity hCSE vs hCBS-413” value (hCSE; IC50 of hCSE / IC50 of hCBS-413) was 29.9 fold and the IC50 (hCSE; standard conditions, 50 mM Tris-HCl pH 8.6) was 29.9 ± 5.6 µM.
